Drawing on patent publication US11236106B2, “Cycloalkane-1,3-diamine derivative” (Daiichi Sankyo Company, Limited, priority 2018, dated 2022), this text covers IC50 for nine molecules.

Each structure is given as a SMILES string. Where a name gives a salt, the structure may show the parent alone.

One experiment concerns the target T1, menin and MLL (menin, Flag tagged; biotinylated MLL1 peptide 1-46aa) (Homo sapiens, UniProt O00255).
T1 sequence (O00255 1-610): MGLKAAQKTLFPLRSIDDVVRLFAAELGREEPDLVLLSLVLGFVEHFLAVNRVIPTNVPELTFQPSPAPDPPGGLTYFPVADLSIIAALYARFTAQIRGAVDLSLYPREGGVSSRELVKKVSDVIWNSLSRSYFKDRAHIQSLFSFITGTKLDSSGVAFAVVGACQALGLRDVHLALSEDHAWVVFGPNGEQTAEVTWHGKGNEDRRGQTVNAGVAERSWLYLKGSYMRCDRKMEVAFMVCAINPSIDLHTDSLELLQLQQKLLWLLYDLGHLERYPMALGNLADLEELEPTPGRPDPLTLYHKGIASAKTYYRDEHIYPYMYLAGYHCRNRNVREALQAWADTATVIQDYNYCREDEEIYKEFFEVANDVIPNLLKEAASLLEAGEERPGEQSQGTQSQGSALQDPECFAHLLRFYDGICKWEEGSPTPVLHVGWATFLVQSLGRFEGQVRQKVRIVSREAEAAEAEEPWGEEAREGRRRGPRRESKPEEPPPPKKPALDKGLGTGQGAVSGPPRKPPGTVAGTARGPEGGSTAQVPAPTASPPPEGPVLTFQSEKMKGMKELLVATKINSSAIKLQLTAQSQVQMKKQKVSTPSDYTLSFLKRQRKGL
Put plainly: biochemical. The settings on record: IC50, binding inhibitory activity between menin and MLL, AlphaLISA; 1 nM menin, 10 nM biotinylated MLL1 peptide. (In general: Alpha assays give light when donor and acceptor beads are brought close together.)
Protocol: Then, the fluorescence signal by AlphaLISA (registered trademark, PerkinElmer Co., Ltd.) was measured using a plate reader (PerkinElmer Co., Ltd., EnVisionXcite).
As to `[2H]C([2H])([2H])Oc1cc(-c2ccc(CN[C@H]3C[C@@H](O)[C@@H](N(C)c4nc(OC)nc5sc(CC(F)(F)F)cc45)C3)cc2)nnc1OC([2H])([2H])[2H]` [Example 123, (1R,2S,4R)-4-{[(4-{5,6-bis[(^2H3)methyloxy]pyridazin-3-yl}phenyl)methyl}amino}-2-{[2-methoxy-6-(2,2,2-trifluoroethyl)thieno[2,3-d]pyrimidin-4-yl](methyl}amino}cyclopentan-1-ol], the IC50 (as a rule, the midpoint of a concentration-inhibition curve) was found to be 0.6 nM.
As to `COc1cc(-c2ccc(CN[C@H]3C[C@@H](O)[C@@H](N(C)c4ncnc5sc(CC(F)(F)F)cc45)C3)cc2)cnc1C(F)(F)F` [Example 88, (1R,2S,4R)-4-[({4-[5-methoxy-6-(trifluoromethyl)pyridin-3-yl]phenyl}methyl)amino]-2-{methyl[6-(2,2,2-trifluoroethyl)thieno[2,3-d]pyrimidin-4-yl]amino}cyclopentan-1-ol hydrochloride], the IC50 is 27.8 nM. This IC50 is about 46-fold higher than that of the molecule before.
The molecule `COc1cc(-c2ccc(CN[C@H]3C[C@@H](O)[C@@H](N(C)c4ncnc5sc(CC(F)(F)F)cc45)C3)c(C)c2)cnc1OC` [Example 78, (1R,2S,4R)-4-({[4-(5,6-dimethoxypyridin-3-yl)-2-methylphenyl]methyl}amino)-2-{methyl[6-(2,2,2-trifluoroethyl)thieno[2,3-d]pyrimidin-4-yl]amino}cyclopentan-1-ol hydrochloride] registered an IC50 of 8.5 nM.
On the same count and under the same terms, as for `COc1nc(N(C)[C@H]2C[C@@H](NCc3ccc(-c4cnc(CO)c(OC)c4)cc3)C[C@H]2O)c2cc(CC(F)(F)F)sc2n1` [Example 112, (1R,2S,4R)-4-[({4-[6-(hydroxymethyl)-5-methoxypyridin-3-yl]phenyl}methyl)amino]-2-{[2-methoxy-6-(2,2,2-trifluoroethyl)thieno[2,3-d]pyrimidin-4-yl](methyl)amino}cyclopentan-1-ol hydrochloride], the figure is 0.8 nM.

Staying with this experiment, now noted: cell free IC50 (nM), 1 nM menin, 10 nM biotinylated MLL1 peptide, AlphaLISA.
The molecule `CN(c1ncnc2sc(CC(F)(F)F)cc12)[C@@H]1CC[C@H](NCc2cncs2)C1` [Example 36, (1R,3S)-N^1-methyl-N^3-[(1,3-thiazol-5-yl)methyl]-N^1-[6-(2,2,2-trifluoroethyl)thieno[2,3-d]pyrimidin-4-yl]cyclopentane-1,3-diamine hydrochloride] gave an IC50 of 636 nM.
The same measure, in the same setting: the same measure for `O=C(NC1COC1)c1ccc(CN[C@H]2CCC[C@@H](Nc3ncnc4sc(CC(F)(F)F)cc34)C2)cc1` [Example 10, N-(oxetan-3-yl)-4-({[(1S,3R)-3-{[6-(2,2,2-trifluoroethyl)thieno[2,3-d]pyrimidin-4-yl]amino}cyclohexyl]amino}methyl)benzamide Hydrochloride]: 199 nM.
`COc1cncc(-c2ccc(CN[C@@H]3C[C@H](O)C[C@H](Nc4ncnc5sc(CC(F)(F)F)cc45)C3)cc2)c1` (single isomer, unassigned) [Example 15B, Hydrochloride] had an IC50 of 403 nM. This IC50 is about 2-fold higher than that of the molecule before.
Turning to `C=CS(=O)(=O)NCCCNC(=O)c1ccc(CN[C@H]2CC[C@@H](N(C)c3ncnc4sc(CC(F)(F)F)cc34)C2)cc1` [Example 34, N-{-3-[(ethenesulfonyl)amino]propyl}-4-({[(1S,3R)-3-{methyl[6-(2,2,2-trifluoroethyl)thieno[2,3-d]pyrimidin-4-yl]amino}cyclopentyl]amino}methyl)benzamide hydrochloride], half-maximal inhibition (IC50) required 413 nM.
Still for that read-out and setting: the same measure for `CN(c1ncnc2sc(CC(F)(F)F)cc12)[C@@H]1CC[C@H](NCc2ccc(C(=O)NCc3cnn(C)c3)cc2)C1` [Example 49, N-[(1-methyl-1H-pyrazol-4-yl)methyl]-4-({[(1S,3R)-3-{methyl[6-(2,2,2-trifluoroethyl)thieno[2,3-d]pyrimidin-4-yl]amino}cyclopentyl]amino}methyl)benzamide hydrochloride]: 24 nM.
